From US10421750B2, “Substituted morpholine derivatives having activity against pain” (ESTEVE PHARMACEUTICALS, S.A., priority 2015, dated 2019) come the findings set out here.

Chain of human σ1 receptor (Q99720 whole entry): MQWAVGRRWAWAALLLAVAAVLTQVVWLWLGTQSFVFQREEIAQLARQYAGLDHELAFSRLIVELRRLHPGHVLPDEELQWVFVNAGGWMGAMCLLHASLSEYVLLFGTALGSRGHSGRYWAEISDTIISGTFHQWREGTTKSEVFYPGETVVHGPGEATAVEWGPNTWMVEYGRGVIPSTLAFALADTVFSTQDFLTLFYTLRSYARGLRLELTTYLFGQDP

This test has as its target human σ1 receptor (Homo sapiens (Human), UniProt Q99720). Nature of the test: Human σ1 receptor radioligand assay ([3H](+)-pentazocine, transfected HEK-293 membranes). The following applies: binding to the σ1 receptor expressed as Ki, [3H](+)-pentazocine 5 nM. How it is done: Human σ1 Receptor Radioligand Assay
To investigate binding properties of test compounds to human σ1 receptor, transfected HEK-293 membranes and [^3H](+)-pentazocine (Perkin Elmer, NET-1056), as the radioligand, were used. The assay was carried out with 7 μg of membrane suspension, 5 nM of [^3H](+)-pentazocine in either absence or presence of either buffer or 10 μM Haloperidol for total and non-specific binding, respectively. Binding buffer contained Tris-HCl 50 mM at pH 8. Plates were incubated at 37° C. for 120 minutes. After the incubation period, the reaction mix was then transferred to MultiScreen HTS, FC plates (Millipore), filtered and plates were washed 3 times with ice-cold 10 mM Tris-HCL (pH7.4). Filters were dried and counted at approximately 40% efficiency in a MicroBeta scintillation counter (Perkin-Elmer) using EcoScint liquid scintillation cocktail
For orientation: Ki means the equilibrium dissociation constant of an inhibitor or competing ligand from its target. Low readings indicate a stronger hold on the target, high ones a looser hold on the target. In turn, `CCN1CC(C2CCN(Cc3ccc(C#N)cc3)CC2)OC2(CC2)C1=O` (stereo not drawn) [Example 36, 4-((4-(7-ethyl-8-oxo-4-oxa-7-azaspiro[2.5]octan-5-yl)piperidin-1-yl)methyl)benzonitrile] yielded a Ki of no less than 500 nM.

In the case of `CC(C)N1CC(C2CCN(Cc3ccccc3)CC2)OC2(CC2)C1=O` (stereo not drawn) [Example 37, 5-(1-benzylpiperidin-4-yl)-7-isopropyl-4-oxa-7-azaspiro[2.5]octan-8-one], the inhibitory constant (Ki) is no less than 500 nM.

Turning to `CC(C)N1CC(C2CCN(Cc3ccc(F)cc3)CC2)OC2(CC2)C1=O` (stereo not drawn) [Example 38, 5-(1-(4-fluorobenzyl)piperidin-4-yl)-7-isopropyl-4-oxa-7-azaspiro[2.5]octan-8-one], the Ki is no less than 500 nM.

Take `CC(C)N1CC(C2CCN(Cc3ccc(C#N)cc3)CC2)OC2(CC2)C1=O` (stereo not drawn) [Example 39, 4-((4-(7-isopropyl-8-oxo-4-oxa-7-azaspiro[2.5]octan-5-yl)piperidin-1-yl)methyl)benzonitrile]: the Ki is no less than 500 nM.

Molecule `CCN1CC(C2CCN(CCC(C)C)CC2)OC2(CC2)C1=O` (stereo not drawn) [Example 40, 7-ethyl-5-(1-isopentylpiperidin-4-yl)-4-oxa-7-azaspiro[2.5]octan-8-one] displayed a Ki of less than 500 nM.

`CCN1CC(C2CCN(Cc3ccccc3)CC2)OCC1=O` (stereo not drawn) [Example 41, 6-(1-benzylpiperidin-4-yl)-4-ethylmorpholin-3-one] had a Ki of less than 100 nM.

For the molecule `CCN1CC(C2CN(Cc3ccccc3)C2)OC2(CC2)C1=O` (stereo not drawn) [Example 42, 5-(1-benzylazetidin-3-yl)-7-ethyl-4-oxa-7-azaspiro[2.5]octan-8-one], the Ki is less than 500 nM.

In the case of `CCN1CC(C2CN(CCc3ccccc3)C2)OC2(CC2)C1=O` (stereo not drawn) [Example 43, 7-ethyl-5-(1-phenethylazetidin-3-yl)-4-oxa-7-azaspiro[2.5]octan-8-one], the Ki was less than 500 nM.

`CC(C)CCN1CCC(C2CN(c3ccccc3)C(=O)C3(CC3)O2)CC1` (stereo not drawn) [Example 44, 5-(1-isopentylpiperidin-4-yl)-7-phenyl-4-oxa-7-azaspiro[2.5]octan-8-one]: the inhibitory constant (Ki) was less than 500 nM.

Take `O=C1N(c2ccccc2)CC(C2CN(Cc3ccccc3)C2)OC12CC2` (stereo not drawn) [Example 45, 5-(1-benzylazetidin-3-yl)-7-phenyl-4-oxa-7-azaspiro[2.5]octan-8-one]: the Ki was less than 100 nM.

`COc1ccc(CN2CC(C3CCN(CC(C)C)CC3)OC3(CC3)C2)cc1` (stereo not drawn) [Example 46, 5-(1-isobutylpiperidin-4-yl)-7-(4-methoxybenzyl)-4-oxa-7-azaspiro[2.5]octane]: the inhibition constant (Ki) was less than 500 nM.

Take `COc1ccc(CN2CC(C3CCN(CCC(C)C)CC3)OC3(CC3)C2)cc1` (stereo not drawn) [Example 47, 5-(1-isopentylpiperidin-4-yl)-7-(4-methoxybenzyl)-4-oxa-7-azaspiro[2.5]octane]: the Ki was less than 100 nM.

`COc1ccc(CN2CCOC(C3CCN(Cc4ccccc4)CC3)C2)cc1` (stereo not drawn) [Example 49, 2-(1-benzylpiperidin-4-yl)-4-(4-methoxybenzyl)morpholine]: the inhibitory constant (Ki) was less than 100 nM.

Consider `CCN1CCOC(C2CCN(Cc3ccccc3)CC2)C1` (stereo not drawn) [Example 50, 2-(1-benzylpiperidin-4-yl)-4-ethylmorpholine], for which the Ki was less than 100 nM.

In turn, `CC(C)CCN1CCC(C2CN(C(=O)c3ccccc3)CC3(CC3)O2)CC1` (stereo not drawn) [Example 51, (5-(1-Isopentylpiperidin-4-yl)-4-oxa-7-azaspiro[2.5]octan-7-yl)(phenyl)methanone] had a Ki of less than 100 nM.
